Assay results published in patent US20070298444A1, “Methods and Compositions for Use in Evaluating and Treating Neoplastic Disease Conditions” (priority 2004, published 2007).

How the values were obtained:
Type in all cases: cell-based, human
HBEC [1] = assay: Paclitaxel treatment of HBEC, immunofluorescence microscopy
Description: (§1) HBEC were grown to 70% confluency on 1 well-chambered coverglass (Lab-Tek II, Nunc, #1.5). For all experiments except the localization of LTB4DH and Hs.516830 to the centriole in D51 cells, which required a stringent wash prior to fixation, standard fixation conditions were used. For standard conditions, culture media was removed and the cells were fixed directly in PBS containing 3% formaldehyde for 20 minutes. For stringent conditions, cells were rinsed quickly in PHEM buffer (60 mM Pipes, 25 mM Hepes, 10 mM EGTA, 1 mM Mg-acetate, pH 6.9), lysed for 2 minutes in PHEM containing 0.5% Triton X100, and fixed in PHEM containing 3% formaldehyde for 20 minutes. All steps subsequent to cell fixation were identical. Cells were incubated with PBS containing 50 mM NH4Cl for 10 minutes, permeabilized in PBS containing 0.1% Triton X-100 at RT for 3 minutes, and blocked one hour in block buffer (PBS containing 0.75% BSA [GIBCO]). Primary antisera was diluted in block buffer to a final concentration of 1-10 ug/ml, depending on the antibody, and incubated with cells for 1.5 hours at room temperature. Conjugated secondary antibodies (diluted in block buffer to 2 ug/ml) were incubated for 45 minutes at room temperature. Phalloidin conjugated to rhodamine (Molecular Probes, 1 unit/ml final) was included during secondary antibody incubation where indicated in the figure legend. DNA was stained with 300 nM DAPI (Molecular Probes) in PBS for 5 minutes, and the cells were mounted in Prolong Antifade (Molecular Probes). Wide-field fluorescence microscopy (DeltaVision, Applied Precision) and subsequent deconvolution was used for all images that dealt with fixed cells. A 0.2-micron z-plane was used throughout. Three-dimensional rendering of stacked images was done on Volocity 2.0 software (Improvision).
(§2) Primary cell cultures of human bronchial epithelial cells (HBEC) were purchased commercially (Cambrex, no retinoic acid) from two male donors and grown in BEGM medium (Cambrex) according to specifications. […]

[2] = tested on: MCF10A breast epithelial cells; assay: Paclitaxel treatment of MCF10A, immunofluorescence microscopy; conditions: 1 uM paclitaxel, 9 hours
HBEC [3] = assay: Nocodazole treatment and recovery of HBEC, immunofluorescence microscopy
Description: as §1, §2

| SMILES | formation of ribbon-like structure (HBEC [1]; HBEC treated with paclitaxel versus absence of paclitaxel, antisera to OKL38, LTB4DH, RLA1, TRIM29) | increase in the number of mitotic figures (HBEC [1]; HBEC, 1 uM paclitaxel, 9 hours, DAPI stain of fixed cells) [fold] | mitotic spindle integrity based on microtubule localization (HBEC [1]; HBEC, 1 uM paclitaxel, 9 hours, alpha-tubulin immunofluorescence) | localization of ribbon-like structure [2] | presence of ribbon-like structure (HBEC [3]; nocodazole 20 minute exposure) | effect on cytoplasmic microtubules (HBEC [3]; nocodazole 20 minute exposure, alpha-tubulin antisera) | effect on actin fibers (HBEC [3]; nocodazole treatment then 20 minute recovery, phalloidin-rhodamine) |
| --- | --- | --- | --- | --- | --- | --- | --- |
| CC(=O)O[C@H]1C(=O)[C@@]2(C)[C@H]([C@H](OC(=O)c3ccccc3)[C@]3(O)C[C@H](OC(=O)[C@H](O)[C@@H](NC(=O)c4ccccc4)c4ccccc4)C(C)=C1C3(C)C)[C@]1(OC(C)=O)CO[C@@H]1C[C@@H]2O [paclitaxel] | promotes the formation of a ribbon-like structure in close proximity to mitotic DNA | 10 | no indication of an intact mitotic spindle in any cell | localization of a ribbon-like structure in the vicinity of condensed, mitotic DNA | – | – | – |
| COC(=O)Nc1nc2ccc(C(=O)c3cccs3)cc2[nH]1 [nocodazole] | – | – | – | – | uncharacteristically absent | sufficient to eliminate cytoplasmic MT | unaffected |
